IC50 data for eleven compounds are collected here from US20230381321A1, “CAMPTOTHECIN CONJUGATES” (priority 2022, published 2023).

Assay type in all cases: cell-based
Assay [1] deals with B-lymphocyte cancer cells (SU-DHL4). Put plainly: In vitro potency (CellTiter-Glo, 96 h) on SU-DHL4. The note with it: read-out: SU-DHL-4 IC50. The method in brief:
(§1)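 Cells authenticated by STR profiling and used within 2 months of resuscitation are seeded in RPMI 1640 containing 20% FBS for 24 hours; […] dilutions in medium are added and incubation runs 4 days before a luminescence read.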
On the technique in general: Cellular ATP, detected with luciferase, serves as a proxy for viable cell number.

Assay [2] concerns non-small-cell lung cancer cells (Calu1). The assay can be described thus: In vitro potency (CellTiter-Glo, 96 h) on Calu1. The note with it: read-out: Calu1 IC50. The method in brief:
as §1

The test system of assay [3] is anaplastic large cell lymphoma cells (Karpas299). The assay can be described thus: In vitro potency (CellTiter-Glo, 96 h) on Karpas299. The note with it: read-out: Karpas299 IC50. The essentials:
as §1

The nature of assay [4]: In vitro potency (CellTiter-Glo, 96 h) on Ls174T. The note with it: read-out: Ls174T IC50. The essentials:
as §1

The subject of assay [5] is anaplastic large cell lymphoma cells (DELBVR). Put plainly: In vitro potency (CellTiter-Glo, 96 h) on DELBVR. The note with it: read-out: DELBVR IC50. The method in brief:
as §1

Assay [6] has as its system anaplastic large cell lymphoma cells (DEL). Put plainly: In vitro potency (CellTiter-Glo, 96 h) on DEL. The note with it: read-out: DEL IC50. The method in brief:
as §1

Assay [7] deals with renal carcinoma cells (786-O). Put plainly: In vitro potency (CellTiter-Glo, 96 h) on 786-O. The note with it: read-out: 786-O IC50. The method in brief: as §1
Assay [8] relates to acute myeloid leukemia cells (MOLM-13). Put plainly: In vitro potency (CellTiter-Glo, 96 h) on MOLM-13. The note with it: read-out: MOLM-13 IC50. The essentials:
as §1

Assay [9] relates to breast cancer cells (MDA-MB-231). The assay can be described thus: In vitro potency (CellTiter-Glo, 96 h) on MDA-MB-231. The note with it: read-out: MDAMB 231 IC50. The essentials: as §1
Assay [10] relates to pancreatic cancer cells (BxPC3). The assay can be described thus: In vitro potency (CellTiter-Glo, 96 h) on BxPC3. The note with it: read-out: BxPC3 IC50. The essentials:
as §1

The test system of assay [11] is Hodgkin's lymphoma cells (L540cy). The assay can be described thus: In vitro potency (CellTiter-Glo, 96 h) on L540cy. The note with it: read-out: L540cy IC50. The essentials: as §1
The next assay deals with melanoma cells (A2058). The assay can be described thus: In vitro potency (CellTiter-Glo, 96 h) on A2058. The note with it: read-out: A2058 IC50. The method in brief:
as §1

Setting [12] is: Homo sapiens, SU-DHL-4, 96 h, CPT free drugs, CellTiter-Glo after 96 h exposure.
Setting [13] is: Homo sapiens, Calu-1, 96 h, CPT free drugs, CellTiter-Glo after 96 h exposure.
Where [14] appears, read: Homo sapiens, KARPAS-299, 96 h, CPT free drugs, CellTiter-Glo after 96 h exposure.
[15] abbreviates: Homo sapiens, LS174T, CPT free drugs, CellTiter-Glo after 96 h exposure.
[16] abbreviates: 96 h, CPT free drugs, CellTiter-Glo after 96 h exposure.
The mark [17] stands for this setting: Homo sapiens, 786-0, 96 h, CPT free drugs, CellTiter-Glo after 96 h exposure.
Setting [18] is: Homo sapiens, MOLM-13, 96 h, CPT free drugs, CellTiter-Glo after 96 h exposure.
[19] abbreviates: Homo sapiens, MDA-MB-231, 96 h, CPT free drugs, CellTiter-Glo after 96 h exposure.
Where [20] appears, read: Homo sapiens, BXPC-3, 96 h, CPT free drugs, CellTiter-Glo after 96 h exposure.
The mark [21] stands for this setting: L540cy, 96 h, CPT free drugs, CellTiter-Glo after 96 h exposure.
Setting [22] is: Homo sapiens, A2058, 96 h, CPT free drugs, CellTiter-Glo after 96 h exposure.
Where [23] appears, read: CPT free drugs, CellTiter-Glo after 96 h exposure.

One may read the IC50 as the point on the concentration scale where inhibition reaches its midpoint.

Like-named read-outs stand apart in the source and are kept apart here. Some results are limits rather than exact numbers.

As to `CC[C@@]1(O)C(=O)OCc2c1cc1n(c2=O)Cc2c-1nc1cc(F)c(C)c(C3=CCN(C)CC3)c1c2CN` [Compound 6l], the IC50 came out at 18 nM in assay [1] (setting [12]); 73 nM in assay [2] (setting [13]); 25 nM in [3] (setting [14]); 29 nM in assay [4] (setting [15]); 15 nM in assay [5] (setting [16]); 6 nM in [6] (setting [16]). In addition, the IC50 in assay [7] (setting [17]) worked out at 38 nM; in [8] (setting [18]), 16 nM; in [9] (setting [19]), 177 nM; in assay [10] (setting [20]), 51 nM; in [11] (setting [21]), 20 nM; with melanoma cells (A2058) (setting [22]), 16 nM.
With `CC[C@@]1(O)C(=O)OCc2c1cc1n(c2=O)Cc2c-1nc1cc(F)c(C)c(C3=CCCC3)c1c2CN` [Compound 6c], the IC50 in [1] (setting [12]) turned out to be 2 nM; in assay [2] (setting [13]), 15 nM; in assay [3] (setting [14]), 3 nM; in [4] (setting [15]) it was 18 nM; in assay [5] (setting [16]) it was 2 nM; in assay [6] (setting [16]), 1 nM. In addition, the IC50 in assay [7] (setting [17]) is 4 nM; in assay [8] (setting [18]), 4 nM; in [9] (setting [19]), 7 nM; in assay [10] (setting [20]) it was 5 nM; in assay [11] (setting [21]), 3 nM; with melanoma cells (A2058) (setting [22]), 5 nM.
`C=C(C)c1ccc2nc3c(c(CN)c2c1)Cn1c-3cc2c(c1=O)COC(=O)[C@]2(O)CC` [Compound 33a]: the IC50 amounted to 14 nM in assay [1] (setting [12]); 120 nM in assay [2] (setting [13]); 28 nM in [3] (setting [14]); 18 nM in assay [4] (setting [15]); 12 nM in assay [5] (setting [16]); 7 nM in assay [6] (setting [16]). The IC50 turned out to be 34 nM in assay [7] (setting [17]); 258 nM in assay [8] (setting [18]); 36 nM in assay [9] (setting [19]); 50 nM in [10] (setting [20]); 21 nM in [11] (setting [21]); 18 nM in the assay with melanoma cells (A2058) (setting [22]).
In the case of `C=Cc1ccc2nc3c(c(CN)c2c1)Cn1c-3cc2c(c1=O)COC(=O)[C@]2(O)CC` [Compound 33, (19S)-10-(aminomethyl)-19-ethyl-19-hydroxy-7-vinyl-17-oxa-3,13-diazapentacyclo[11.8.0.02,11.04,9.015,20]henicosa-1(21),2,4,6,8,10,15(20)-heptaene-14,18-dione], the half-maximal inhibitory concentration (IC50) is 4 nM in assay [1] (setting [12]); 36 nM in assay [2] (setting [13]); 8 nM in assay [3] (setting [14]); 14 nM in assay [4] (setting [15]); 2 nM in assay [5] (setting [16]); 2 nM in assay [6] (setting [16]). The IC50 in assay [7] (setting [17]) stood at 10 nM; in assay [8] (setting [18]), 85 nM; in assay [9] (setting [19]), 18 nM; in [10] (setting [20]), 11 nM; in assay [11] (setting [21]), 4 nM; in the assay with melanoma cells (A2058) (setting [22]) it was 6 nM.
On to `CC[C@@]1(O)C(=O)OCc2c1cc1n(c2=O)Cc2c-1nc1cc(F)c(C)c(C3=CCCCC3)c1c2CN` [Compound 6b], for which the IC50 was 9 nM in [1] (setting [12]); 32 nM in assay [2] (setting [13]); 14 nM in [3] (setting [14]); 85 nM in assay [4] (setting [15]); 5 nM in assay [5] (setting [16]); 5 nM in assay [6] (setting [16]). Besides, the IC50 turned out to be 23 nM in assay [7] (setting [17]); 9 nM in assay [8] (setting [18]); 35 nM in assay [9] (setting [19]); 18 nM in [10] (setting [20]); 13 nM in assay [11] (setting [21]); 15 nM in the assay with melanoma cells (A2058) (setting [22]).
As to `CC[C@@]1(O)C(=O)OCc2c1cc1n(c2=O)Cc2c-1nc1cc3c(cc1c2CN)C(C)CO3` (single isomer, unassigned) [Compound 11a], the IC50 in assay [1] (setting [23]) was 3 nM; in assay [2] (setting [23]), 131 nM; in [3] (setting [23]), 13 nM; in [4] (setting [23]), more than 1000 nM; in assay [5] (setting [23]), 4 nM; in assay [6] (setting [23]) it was 2 nM. Besides, the IC50 is 15 nM in [7] (setting [23]); 14 nM in assay [8] (setting [23]); 100 nM in [9] (setting [23]); 23 nM in assay [10] (setting [23]); 6 nM in [11] (setting [23]); 5 nM in the assay with melanoma cells (A2058) (setting [23]).
As to `CC[C@@]1(O)C(=O)OCc2c1cc1n(c2=O)Cc2c-1nc1cc3c(cc1c2CO)CCO3` [Compound 35], the IC50 in assay [1] (Homo sapiens, SU-DHL-4, 96 h) is 1 nM; in [2] (Homo sapiens, Calu-1, 96 h), 9 nM; in assay [3] (Homo sapiens, KARPAS-299, 96 h) it was 4 nM; in [4] (Homo sapiens, LS174T, 96 h), 3 nM; in assay [5] (96 h) it was 1 nM; in assay [6] (96 h), 0.6 nM. Moreover, the IC50 in assay [7] (Homo sapiens, 786-0, 96 h) came to 4 nM; in assay [8] (Homo sapiens, MOLM-13, 96 h) it was 22 nM; in assay [9] (Homo sapiens, MDA-MB-231, 96 h) it was 5 nM; in assay [10] (Homo sapiens, BXPC-3, 96 h), 6 nM; in assay [11] (L540cy, 96 h) it was 2 nM; with melanoma cells (A2058) (Homo sapiens, A2058, 96 h), 2 nM.
On to `CC[C@@]1(O)C(=O)OCc2c1cc1n(c2=O)Cc2c-1nc1ccc3c(c1c2CN)COC3` [Compound 2aq], for which the IC50 in assay [1] (setting [12]) was determined as 5 nM; in assay [2] (setting [13]), 1 nM; in assay [3] (setting [14]), 7 nM; in assay [4] (setting [15]) it was 12 nM; in assay [5] (setting [16]) it was 3 nM; in assay [6] (setting [16]), 2 nM. Besides, the IC50 in assay [7] (setting [17]) was 11 nM; in assay [8] (setting [18]), 39 nM; in [9] (setting [19]), 12 nM; in [10] (setting [20]) it was 27 nM; in [11] (setting [21]) it was 4 nM; with melanoma cells (A2058) (setting [22]), 18 nM.
Regarding `CC[C@@]1(O)C(=O)OCc2c1cc1n(c2=O)Cc2c-1nc1cc(F)c(C)c(-c3ccsc3)c1c2CN` [Compound 6g], the IC50 worked out at 2 nM in assay [1] (setting [12]); 25 nM in [2] (setting [13]); 4 nM in assay [3] (setting [14]); 14 nM in assay [4] (setting [15]); 1 nM in assay [5] (setting [16]); 1 nM in assay [6] (setting [16]). For the same compound, the IC50 in assay [7] (setting [17]) worked out at 6 nM; in [8] (setting [18]), 6 nM; in assay [9] (setting [19]), 12 nM; in assay [10] (setting [20]) it was 7 nM; in assay [11] (setting [21]), 4 nM; in the assay with melanoma cells (A2058) (setting [22]), 4 nM.
Turning to `CC[C@@]1(O)C(=O)OCc2c1cc1n(c2=O)Cc2c-1nc1cc(F)c(C)c(C=C(C)C)c1c2CN` [Compound 6, (S)-11-(aminomethyl)-4-ethyl-8-fluoro-4-hydroxy-9-methyl-10-(2-methylprop-1-en-1-yl)-1,12-dihydro-14H-pyrano[3′,4′:6,7]indolizino[1,2-b]quinoline-3,14(4H)-dione], the concentration for half-maximal inhibition (IC50) in [1] (Homo sapiens, SU-DHL-4, 96 h) is 2 nM; in [2] (Homo sapiens, Calu-1, 96 h), 17 nM; in assay [3] (Homo sapiens, KARPAS-299, 96 h) it was 4 nM; in [4] (Homo sapiens, LS174T, 96 h), 21 nM; in [5] (96 h), 3 nM; in assay [6] (96 h), 1 nM. Further, the IC50 in [7] (Homo sapiens, 786-0, 96 h) stood at 5 nM; in [8] (Homo sapiens, MOLM-13, 96 h) it was 4 nM; in assay [9] (Homo sapiens, MDA-MB-231, 96 h), 7 nM; in assay [10] (Homo sapiens, BXPC-3, 96 h) it was 8 nM; in assay [11] (L540cy, 96 h) it was 4 nM; in the assay with melanoma cells (A2058) (Homo sapiens, A2058, 96 h), 5 nM.
For `CC[C@@]1(O)C(=O)OCc2c1cc1n(c2=O)Cc2c-1nc1cc(F)c(C)c(-c3ccc(O)cc3)c1c2CN` [Compound 6f], the IC50 in assay [1] (setting [12]) is 19 nM; in assay [2] (setting [13]), 294 nM; in [3] (setting [14]), 59 nM; in assay [4] (setting [15]), more than 1000 nM; in assay [5] (setting [16]), 8 nM; in assay [6] (setting [16]) it was 9 nM. Moreover, the IC50 in assay [7] (setting [17]) was found to be 97 nM; in [8] (setting [18]), 51 nM; in assay [9] (setting [19]), 139 nM; in assay [10] (setting [20]), 46 nM; in assay [11] (setting [21]) it was 23 nM; with melanoma cells (A2058) (setting [22]) it was 17 nM.
